From patent publication US7261880B2, “Methods of treating Syndrome X with aliphatic polyamines” (priority 2001, dated 2007)
Like-named read-outs stand apart in the source and are kept apart here. Marks after values point to notes of the source that are not given here.

What was measured:
[1] = system: patients with primary hypercholesterolemia; assay: Simvastatin Trial (6-week), colesevelam in combination with simvastatin; format: in vivo, human; settings: 6 weeks
[2] = system: patients with primary hypercholesterolemia; settings: Lovastatin 10 mg/day, 4 weeks
[3] = system: patients with primary hypercholesterolemia; settings: 4 weeks

CCC(C)(C)C(=O)O[C@H]1C[C@@H](C)C=C2C=C[C@H](C)[C@H](CC[C@@H]3C[C@@H](O)CC(=O)O3)[C@H]21 [Simvastatin, simvastatin]
Apo B mean percentage change ([1]; Simvastatin 10 mg/day): −20* %
HDL-C median percentage change ([1]; Simvastatin 10 mg/day): +3* %
LDL-C mean percentage change ([1]; Simvastatin 10 mg/day): −26* %
TG median percentage change ([1]; Simvastatin 10 mg/day): −17* %
Total-C mean percentage change ([1]; Simvastatin 10 mg/day): −19* %
Apo B mean percentage change ([1]; Simvastatin 20 mg/day): −26* %
HDL-C median percentage change ([1]; Simvastatin 20 mg/day): +7* %
LDL-C mean percentage change ([1]; Simvastatin 20 mg/day): −34* %
TG median percentage change ([1]; Simvastatin 20 mg/day): −12* %
Total-C mean percentage change ([1]; Simvastatin 20 mg/day): −23* %

CC[C@H](C)C(=O)O[C@H]1C[C@@H](C)C=C2C=C[C@H](C)[C@H](CC[C@@H]3C[C@@H](O)CC(=O)O3)[C@H]21 [Lovastatin, lovastatin]
Apo B mean percentage change [2]: −16%
HDL-C median percentage change [2]: +5%
LDL-C mean percentage change [2]: −22* %
TG median percentage change [2]: 0%
Total-C mean percentage change [2]: −14* %

CC(C)c1c(C(=O)Nc2ccccc2)c(-c2ccccc2)c(-c2ccc(F)cc2)n1CC[C@@H](O)C[C@@H](O)CC(=O)O [Atorvastatin, atorvastatin]
Apo B mean percentage change ([3]; Atorvastatin 10 mg/day): −32* %
HDL-C median percentage change ([3]; Atorvastatin 10 mg/day): +8%
LDL-C mean percentage change ([3]; Atorvastatin 10 mg/day): −38* %
TG median percentage change ([3]; Atorvastatin 10 mg/day): −24* %
Total-C mean percentage change ([3]; Atorvastatin 10 mg/day): −27* %
Apo B mean percentage change ([3]; Atorvastatin 80 mg/day): −46* %
HDL-C median percentage change ([3]; Atorvastatin 80 mg/day): +6%
LDL-C mean percentage change ([3]; Atorvastatin 80 mg/day): −53* %
TG median percentage change ([3]; Atorvastatin 80 mg/day): −33* %
Total-C mean percentage change ([3]; Atorvastatin 80 mg/day): −39* %
